Test results reported in PMC9343080, “Distribution- and Metabolism-Based Drug Discovery: A Potassium-Competitive Acid Blocker as a Proof of Concept” (Research, 2022).
Like-named read-outs stand apart in the source and are kept apart here. Marks after values point to notes of the source that are not given here.

Assays:
[1] = target: T1, rabbit gastric H+, K+-ATPase (Oryctolagus cuniculus, UniProt P27112); assay: In vitro enzymatic activity assay (inorganic phosphate from ATP hydrolysis); type: biochemical
T1 construct: using rabbit gastric H^+, K^+-ATPase; from tissue; host or cells: rabbit stomach (gastric preparation; the method of preparation is not described)
Protocol: The in vitro enzymatic activity was calculated by measuring the inorganic phosphate produced by the hydrolysis of ATP using rabbit gastric H^+, K^+-ATPase. 0.25 μg enzyme was preincubated at 37°C for 30 min in Tris-HCl buffer (2.0 mL, 50 mM, pH 6.5) containing 5 mM MgCl2, 10 μM valinomycin, 0 or 20 mM KCl, and different concentrations of SH-337 and vonoprazan. The reaction was initiated by adding 5 μL of 5 mM ATP 2Na, and the preparation was incubated for 30 min at 37°C and halted by the addition of 100 μL of malachite green reagent (0.12% malachite green, 7.5% ammonium molybdate, and 11% tween 20 were mixed in a volume ratio of 100 : 25 : 2). H^+, K^+-ATPase activity was calculated after subtracting the enzyme activity in the absence of KCl.

[2] = tested on: 2-DG-stimulated gastric acid secretion; assay: In vivo inhibition of 2DG-stimulated acid secretion in anesthetized rats; design: species or system rat; conditions: i.g. 2 mg/kg
Protocol: (§1) 60 SPF SD rats weighing 180-220 g were randomly divided into […]: sham, model, SH-337 (2 mg/kg and 4 mg/kg), vonoprazan (2 mg/kg), males and females are equally divided. Fasting for 24 hours, model and sham groups were treated with deionized water. Drugs and vehicle were given through intragastric administration to rats before anesthesia. 1 h after administration, pylorus was ligated. 5 min later, histamine 2HCl (30 mg/10 mL/kg) was injected subcutaneously. At 3 h after histamine administration, the rats were killed by CO2 asphyxiation. The gastric contents were collected in a 10 mL centrifuge tube after removing their stomachs. Centrifuge at 3000 g for 10 min, and then, determine the total acid output during a 3 h period by 0.1 M NaOH [52, 53]. %Inhibition = (average of modelacid–drugacid)/average of modelacid × 100%.
The 2DG-stimulated acid secretion in anesthetized rats was measured as described as for histamine-stimulated acid secretion, with the exception that 5 min after pylorus ligation, 2-DG (200 mg/10 mL/kg) was injected subcutaneously.

[3] = ref [43], cited from earlier work
[4] = target: Na+, K+-ATPase; assay: In vitro Na+, K+-ATPase activity; type: biochemical
[5] = Human microsomal stability; type: in vitro ADME; conditions: human, human liver microsomes; read-out: Metabolic stability (t1/2) human
Protocol: (§2) The in vitro metabolic stabilities of selected compounds were performed using human and rat liver microsomes in triplicate as described previously.

[6] = Rat microsomal stability; type: in vitro ADME; conditions: rat, rat liver microsomes; read-out: Metabolic stability (t1/2) rat
Protocol: as §2

[7] = cited from earlier work; for Drug concentration, Plasma: 2 mg/kg
[8] = pH 7.4; ref [35], [38], [39]; cited from earlier work
[9] = tested on: histamine-stimulated gastric acid secretion; assay: In vivo inhibition of histamine-stimulated acid secretion in anesthetized rats; design: species or system rat
Protocol: as §1

[10] = Tissue distribution of vonoprazan and its metabolites in rats (previous studies); type: in vivo, rat; conditions: 1 h after oral 2.0 mg/kg, calculated from data of a previous study, ref [40]
[11] = AUC0–24, rats, i.g. 2 mg/kg vonoprazan, ref [43]
[12] = rats, 1 h after oral administration of 2.0 mg/kg, ref [40]
[13] = rats, i.g. 2 mg/kg vonoprazan, ref [43]

T1 sequence (P27112 whole entry): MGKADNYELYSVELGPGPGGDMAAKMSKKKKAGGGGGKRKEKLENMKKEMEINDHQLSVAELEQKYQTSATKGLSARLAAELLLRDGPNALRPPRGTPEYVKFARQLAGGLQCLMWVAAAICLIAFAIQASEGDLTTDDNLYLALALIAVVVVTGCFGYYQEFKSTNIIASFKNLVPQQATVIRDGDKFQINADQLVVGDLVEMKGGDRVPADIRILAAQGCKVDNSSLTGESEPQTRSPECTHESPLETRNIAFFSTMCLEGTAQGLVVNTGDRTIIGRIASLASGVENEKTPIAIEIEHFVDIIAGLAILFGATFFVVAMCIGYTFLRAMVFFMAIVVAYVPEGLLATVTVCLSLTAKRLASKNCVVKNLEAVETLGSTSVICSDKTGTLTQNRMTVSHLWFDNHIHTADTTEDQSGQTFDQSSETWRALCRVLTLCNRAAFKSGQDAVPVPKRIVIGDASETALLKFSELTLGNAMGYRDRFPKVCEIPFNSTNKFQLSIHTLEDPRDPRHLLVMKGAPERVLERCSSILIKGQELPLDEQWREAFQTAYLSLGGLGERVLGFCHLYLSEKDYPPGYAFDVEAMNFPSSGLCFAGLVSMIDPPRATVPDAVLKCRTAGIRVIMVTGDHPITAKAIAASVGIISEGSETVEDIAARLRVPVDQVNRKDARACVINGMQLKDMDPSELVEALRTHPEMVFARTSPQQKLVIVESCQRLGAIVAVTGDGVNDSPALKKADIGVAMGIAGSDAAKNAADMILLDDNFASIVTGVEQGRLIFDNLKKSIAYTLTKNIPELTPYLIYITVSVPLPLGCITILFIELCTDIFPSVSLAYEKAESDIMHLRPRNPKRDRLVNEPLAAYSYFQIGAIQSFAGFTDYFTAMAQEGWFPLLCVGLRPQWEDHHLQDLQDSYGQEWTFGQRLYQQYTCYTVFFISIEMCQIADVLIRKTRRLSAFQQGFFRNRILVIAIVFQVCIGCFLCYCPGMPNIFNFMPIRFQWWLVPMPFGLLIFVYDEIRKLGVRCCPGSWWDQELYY
T1 sequence (P18597 whole entry partner): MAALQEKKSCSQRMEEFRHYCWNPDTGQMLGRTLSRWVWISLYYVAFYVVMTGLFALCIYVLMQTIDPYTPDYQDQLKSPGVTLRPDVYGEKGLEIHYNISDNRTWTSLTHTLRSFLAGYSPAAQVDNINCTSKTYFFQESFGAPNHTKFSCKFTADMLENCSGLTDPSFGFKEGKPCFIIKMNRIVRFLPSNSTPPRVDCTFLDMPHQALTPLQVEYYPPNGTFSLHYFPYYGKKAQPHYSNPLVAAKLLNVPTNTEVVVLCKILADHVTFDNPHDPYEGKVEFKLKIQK

Compound: CNCc1cc(-c2ccccc2F)n(S(=O)(=O)c2cccnc2)c1.O=C(O)/C=C/C(=O)O [Vonoprazan, 1-[5-(2-fluorophenyl)-1-(pyridin-3-ylsulfonyl)-1H-pyrrol-3-yl]-N-methylmethanamine fumarate]
- IC50 [1]: 0.0655 µM
- Inhibition (%), 2-DG-stimulated model [2]: 80%
- Total acid output, 2-DG-stimulated model [2]: 0.62 ± 0.55^∗∗ 10^−4 mol
- ALT and total cholesterol ([3]; 100 mg/kg dose of vonoprazan, males): high ALT and total cholesterol were observed in males
- no observed adverse effect level (NOAEL) [3]: 30 mg/kg
- IC50 [4]: 47.1 µM
- Fold selectivity ([4]; Na+, K+-ATPase over H+, K+-ATPase): 719.4 fold
- half-life [5]: 5.65 h
- half-life [6]: 0.908 h
- C Stomach/CLiver (stomach-liver distribution ratio) [7, 11]: 3.2
- C Stomach/CPlasma (stomach-plasma distribution ratio) [7, 11]: 165.0
- C Stomach/CPlasma (stomach-plasma distribution ratio) ([7]; AUC0–24, rats, i.g. 2 mg/kg vonoprazan, ref [43], listed as vonoprazan): 165
- Drug concentration, Plasma [7, 12]: 11.0^c ng/mL
- Drug concentration, Stomach [7, 12]: 957.0^c ng/mL
- Drug concentration, Plasma ([7]; rats, 1 h after oral administration of 2.0 mg/kg, ref [40], listed as vonoprazan): 11 ng/mL
- AUC0–24, Liver [7, 13]: 4039.0 ng equiv. h/mL or g
- AUC0–24, Plasma [7, 13]: 79.0 ng equiv. h/mL or g
- AUC0–24, Stomach [7, 13]: 13085.0 ng equiv. h/mL or g
- log D7.4 [8]: 0.4^a
- In vivo efficacy (% inhibition) ([9]; histamine-induced acid secretion in rats, 2 mg/kg, i.g. (Table 2)): 78%
- Total acid output, histamine-stimulated model ([9]; rats, i.g. 2 mg/kg): 0.29 ± 0.43^∗∗ 10^−4 mol
- C Stomach/CPlasma ([10]; 2 mg/kg): 87.0^e
- Kp at 1 h ([10]; rat, stomach/plasma, read-out: C Stomach/CPlasma): 87
